How the values were obtained:
IV-cPLA(2) = target: T1, IV-cPLA(2) (Homo sapiens, UniProt P47712); experiment: PLA(2) activity, hydrolysis of bis-BODIPY FL C11-PC in activated U937 cells; format: cell-based
T1 sequence (P47712 1-749): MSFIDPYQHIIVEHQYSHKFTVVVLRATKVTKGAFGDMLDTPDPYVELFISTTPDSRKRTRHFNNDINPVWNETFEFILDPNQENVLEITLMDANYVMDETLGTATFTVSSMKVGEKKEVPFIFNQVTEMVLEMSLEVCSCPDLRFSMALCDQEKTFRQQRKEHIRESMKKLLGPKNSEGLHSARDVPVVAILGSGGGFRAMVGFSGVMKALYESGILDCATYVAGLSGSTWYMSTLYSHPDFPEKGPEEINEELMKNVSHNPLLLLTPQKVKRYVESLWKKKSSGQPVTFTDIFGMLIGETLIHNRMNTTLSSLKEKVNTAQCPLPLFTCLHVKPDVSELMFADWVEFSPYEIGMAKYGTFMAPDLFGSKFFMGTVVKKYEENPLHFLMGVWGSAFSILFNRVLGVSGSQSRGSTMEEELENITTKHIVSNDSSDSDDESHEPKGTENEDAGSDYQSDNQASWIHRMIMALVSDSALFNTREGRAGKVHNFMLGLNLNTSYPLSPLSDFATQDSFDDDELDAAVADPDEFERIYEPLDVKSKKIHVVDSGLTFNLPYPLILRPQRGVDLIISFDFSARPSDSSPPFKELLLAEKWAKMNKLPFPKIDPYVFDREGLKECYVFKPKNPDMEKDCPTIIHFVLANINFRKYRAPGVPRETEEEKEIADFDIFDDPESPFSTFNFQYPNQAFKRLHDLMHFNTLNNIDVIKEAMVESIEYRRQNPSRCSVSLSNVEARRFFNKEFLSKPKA
Outline: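 DMSO-differentiated U937 macrophage-like cells activated 1 h with 1×10^−8M TPA were preincubated with compound 120 min at 37 °C, then given bis-BODIPY FL C11-PC/PC (1:9) liposomes plus A23187 for 30 min. Hydrolysis read as fluorescence increase (ex 485/em 535 nm); cell-free blank, triplicates, DMSO ≤0.1%.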

TPA-induced ear edema = format: in vivo, ICR-strain male mouse; details: topical, 0.3 mg/20 μL/ear × 2; 6 hours after TPA
Description: This test was carried out referring to the method of Carlson, R. P. et al. (Agents and Actions, 17(2): 197-204 (1985).) and the method of Chang, J. (European Journal of Pharmacology, 142: 197-205 (1987).). […] 6 hours later, the thickness of each ear at the particular part was respectively measured three times using a digimatic micrometer to calculate the mean value. Ear edema was determined by subtracting the mean thickness of the left ear as without treatment from that of the right ear as TPA-applied. […] As the positive control, 100 mg/kg of Hydrocortisone (Sigma Chemical Co., H 4001) suspension was applied to the mouse similarly as for the compound of the present invention.

[1] = test system: acetic acid-induced writhes; experiment: Acetic acid writhing; format: in vivo, ICR-strain male mouse; details: i.p., 1 mg/kg; 10 to 20 min after acetic acid
Description: This test was carried out referring to the method of Inoue, K., Motonaga, A. & Nishimura, T (Arzneimittel Forshung/Drug Research, 41 (1): 235-239 (1991)). More specifically, 7.5 mL/kg of 0.9% acetic acid solution was injected intraperitoneally into an ICR-strain male mouse (5 to 7 weeks old), and the induced writhes (characteristic behaviors of convulsive contracting the abdomen, twisting the body and/or extending the legs) were observed. Number of writhes of each mouse was measured during 10 to 20 min. period after acetic acid administration. The compound of the present invention was homogeneously suspended in 2% Tween 80/saline for injection use, and was injected intraperitoneally 30 min. before the induction by the acetic acid injection. Alternatively, the compound of the present invention was homogeneously suspended in 2% Tween 80/distilled water, and was administrated orally two hours before the induction by the acetic acid injection. The analgesic activity of the compounds according to the present invention was evaluated on the basis of the degree of inhibiting the number writhes by the administration of the compounds. As the positive control, indomethacin or aspirin was administrated. The analgesic activity of the compounds according to the present invention measured in this test were exemplified in Table 7.

SMILES | inhibition at 0.1 µM (IV-cPLA(2); U-937, 0.1 μM) [%] | melting point [°C] | Inhibition (%) (IV-cPLA(2); 0.01 μM) | Ear Edema Inhibition (%) (TPA-induced ear edema) | Number of writhes (Mean ± S.E.) [1]
C[C@@H]1NC(=N[N+](=O)[O-])O[C@H]1c1ccc(Cl)cc1 (relative stereo) [Compound 1-10, trans-5-(4-chlorophenyl)-4-methyl-2-nitroiminooxazolidine] | 79 | 123 to 126 |  |  | 
Cc1ccc(C2SC(=O)N(C(=O)NC3CCCCO3)C2C)cc1 (centres unmarked) [Compound 2-189] |  |  | 86 | 84 | 0.8 ± 0.5

Source: patent publication US6762200B2, “Oxa(thia)zolidine derivative and anti-inflammatory drug” (Nippon Soda Co. Ltd., priority 2000, dated 2004)
